Results on 1 compound are retold here after ChEMBL document CHEMBL5584334, “Discovery of a Covalent Inhibitor of Pro-Caspase-1 Zymogen Blocking NLRP3 Inflammasome Activation and Pyroptosis” (J Med Chem, 2024).

Each structure is given as a SMILES string. The source made the active and inactive calls. No cut-off for these calls is given here.

The subject of data set [1] is J774.A1. In words: Inhibition of pyroptosis in mouse J774.A1 cells assessed as reduction in number of propidium iodide positive cells at 0.5 to 2 uM pretreated with LPS for 3 hrs followed by compound addition in presence of nigericin by flow cytometry analysis. The data set is classed as functional, cell-based. The conditions noted are these: dose 0.5-2 µM. Background: In flow cytometry, cells or beads pass a laser one at a time.

Data set [2] concerns the target NACHT, LRR and PYD domains-containing protein 3 (Mus musculus) (UniProt Q8R4B8). In words: Inhibition of NLRP3 inflammasome activation in LPS/nigericin stimulated mouse J774.A1 cells assessed as reduction in IL-18 production pretreated with LPS for 3 hrs prior to compound addition for 30 mins followed by nigericin addition and measured after 45 mins by ELISA. The class given is cell-based. The conditions noted are these: time 75.0 min.

Data set [3] in a line: Acute toxicity in Kunming mouse assessed as kidney damage at 100 mg/kg, ip administered for 14 days. The data set is classed as organism-based. Conditions: in vivo, 336 h, time 14 day.
In data set [4] the test system is Caspase-1 (Homo sapiens), P29466 [C270A]. As to the kind of experiment: Inhibition of recombinant caspase-1 C270A mutant (unknown origin) at 100 uM relative to control.
In data set [5] the target is NACHT, LRR and PYD domains-containing protein 3 (Mus musculus) (UniProt Q8R4B8). In words: Inhibition of NLRP3 inflammasome activation in mouse BMDMs assessed as reduction in IL-1beta production at 0.5 to 2 uM pretreated with pam3CSK4 for 3 hrs followed by compound addition for 30 mins prior to cytosolic LPS stimulation for 16 hrs by ELISA. The conditions noted are these: BMDM, dose 0.5-2 µM, time 16.5 hrs. The class given is cell-based. In general terms: ELISA stands for enzyme-linked immunosorbent assay.

A short description of data set [6]: Acute toxicity in Kunming mouse assessed as heart damage at 100 mg/kg, ip administered for 14 days. The class given is organism-based. The conditions noted are these: in vivo, 336 h, time 14 day.
Data set [7] relates to J774.A1. In words: Inhibition of pyroptosis in mouse J774.A1 cells assessed as reduction in LDH release at 0.5 to 2 uM pretreated with LPS for 3 hrs followed by compound addition in presence of nigericin. The data set is classed as functional, cell-based. Conditions: dose 0.5-2 µM. (LDH leaks from cells whose membrane has failed.)
A further data set concerns the target T1, Caspase-1 (Homo sapiens) (UniProt P29466).
T1 sequence (whole entry): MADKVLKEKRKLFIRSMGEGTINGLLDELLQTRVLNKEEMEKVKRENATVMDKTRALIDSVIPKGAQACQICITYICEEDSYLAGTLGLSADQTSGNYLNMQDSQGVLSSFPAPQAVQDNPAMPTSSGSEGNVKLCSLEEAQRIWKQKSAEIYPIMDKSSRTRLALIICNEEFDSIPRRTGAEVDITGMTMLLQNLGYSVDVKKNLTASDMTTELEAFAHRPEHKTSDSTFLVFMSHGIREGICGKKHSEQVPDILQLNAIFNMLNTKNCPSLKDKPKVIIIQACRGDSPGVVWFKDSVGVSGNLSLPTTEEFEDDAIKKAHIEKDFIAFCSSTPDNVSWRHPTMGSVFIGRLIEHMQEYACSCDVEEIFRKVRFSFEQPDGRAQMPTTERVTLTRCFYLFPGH
In words: Inhibition of recombinant human caspase-1 expressed in Escherichia coli BL21 cells at 5 to 50 uM using […] as substrate incubated for 30 mins. Conditions: dose 5-50 µM.

The next data set has as its target T2, Caspase-3 (Mus musculus) (UniProt P70677).
T2 sequence (whole entry): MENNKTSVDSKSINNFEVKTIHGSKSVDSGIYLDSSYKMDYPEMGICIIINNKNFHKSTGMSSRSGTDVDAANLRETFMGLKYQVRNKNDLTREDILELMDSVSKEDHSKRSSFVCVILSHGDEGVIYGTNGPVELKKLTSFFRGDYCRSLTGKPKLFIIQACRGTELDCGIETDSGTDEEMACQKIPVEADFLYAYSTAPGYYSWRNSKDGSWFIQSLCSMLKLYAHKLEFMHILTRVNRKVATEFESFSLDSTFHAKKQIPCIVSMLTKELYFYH
As to the kind of experiment: Inhibition of cisplatin induced caspase-3 activation in mouse J774.A1 cells at 2 uM preincubated for 30 mins followed by cisplatin addition and incubated overnight. The data set is classed as cell-based.

In data set [8] the test system is Caspase-1 (Homo sapiens), P29466 [C270A]. In words: Binding affinity to recombinant caspase-1 C270A mutant (unknown origin) at 2 uM by SDS-PAGE analysis.
The subject of data set [9] is Caspase-1 (Homo sapiens), P29466 [C244A]. In words: Inhibition of recombinant caspase-1 C244A mutant (unknown origin) at 100 uM relative to control.
The subject of data set [10] is J774.A1. In words: Inhibition of NLRP3 colocalization in LPS/nigericin stimulated mouse J774.A1 cells by fluorescent staining based assay. The data set is classed as functional, cell-based.
The target in data set [11] is NACHT, LRR and PYD domains-containing protein 3 (Mus musculus) (UniProt Q8R4B8). In words: Inhibition of NLRP3 inflammasome activation in mouse J774.A1 cells assessed as reduction in NLRP3 mRNA expression at 0.5 to 2 uM preincubated for 30 mins followed by LPS stimulation for 24 hrs by RT-qPCR analysis. The data set is classed as cell-based. Conditions: dose 0.5-2 µM, time 24.5 hrs.

The target of a further data set is T3, Caspase-1 (Mus musculus) (UniProt P29452).
T3 sequence (whole entry): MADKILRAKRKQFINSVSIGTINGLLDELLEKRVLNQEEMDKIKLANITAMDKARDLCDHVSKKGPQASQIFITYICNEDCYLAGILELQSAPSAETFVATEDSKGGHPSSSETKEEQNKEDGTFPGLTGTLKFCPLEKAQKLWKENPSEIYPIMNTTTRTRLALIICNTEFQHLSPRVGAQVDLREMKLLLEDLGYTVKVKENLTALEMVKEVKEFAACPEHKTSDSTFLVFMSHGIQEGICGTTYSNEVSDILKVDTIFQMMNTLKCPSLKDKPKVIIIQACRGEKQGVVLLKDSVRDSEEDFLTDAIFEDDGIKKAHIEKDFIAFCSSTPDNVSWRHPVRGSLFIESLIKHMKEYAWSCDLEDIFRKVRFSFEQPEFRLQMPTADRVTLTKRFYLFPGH
In words: Irreversible binding affinity to caspase-1 in LPS-induced mouse J774.A1 cells assessed as reduction in IL-1beta level at 0.5 to 2 uM pretreated with LPS for 3 hrs followed by compound addition for 30 mins prior to compound washout then nigericin addition for 1 hr by ELISA. The data set is classed as cell-based. The conditions noted are these: dose 0.5-2 µM.

In a further data set the test system is HEK293T. As to the kind of experiment: Inhibition of recombinant caspae-1 C270A mutant (unknown origin) to GSDMD (unknown origin) interaction expressed in HEK293T cells. The data set is classed as cell-based. Conditions: Homo sapiens.
The subject of data set [12] is J774.A1. As to the kind of experiment: Effect on ASC speck formation in mouse J774.A1 cells at 2 uM pretreated with LPS for 3 hrs prior to compound addition followed by nigericin stimulation. The data set is classed as functional, cell-based.
Data set [13] has as its system Caspase-1 (Homo sapiens), P29466 [C397A]. In words: Binding affinity to Flag-tagged caspase-1 C397A mutant (unknown origin) expressed in HEK293T cells by pull-down assay. The data set is classed as cell-based.
Data set [14] addresses NACHT, LRR and PYD domains-containing protein 3 (Homo sapiens) (UniProt Q96P20). As to the kind of experiment: Inhibition of NLRP3 inflammasome activation in LPS/nigericin stimulated human THP-1 cells assessed as reduction in IL-1beta production at 1 uM pretreated with LPS for 3 hrs followed by compound addition for 30 mins prior to nigericin stimulation for 45 mins by ELISA. Conditions: time 75.0 min. The class given is cell-based.

The test system of a further data set is THP-1. In words: Effect on pro-1L-1beta protein expression in LPS/ATP stimulated human THP-1 cells supernatant by Western blotting analysis. The data set is classed as functional, cell-based.
In another data set the test system is Mus musculus. In words: Anti-inflammatory activity in MSU/C18:0 free fatty acid induced Kunming mouse model of gouty arthritis assessed as reduction p20 expression at 5 to 20 mg/kg, ip preadministered with compound for 30 mins followed by MSU/C18:0 free fatty acid injection and measured after 24 hrs by Western blotting analysis. Conditions: dose 5-20 mg/kg, time 24.5 hrs. The class given is functional, organism-based.

Sequence of NACHT, LRR and PYD domains-containing protein 3 (Mus musculus) (Q8R4B8 whole entry, the tested form may be a part): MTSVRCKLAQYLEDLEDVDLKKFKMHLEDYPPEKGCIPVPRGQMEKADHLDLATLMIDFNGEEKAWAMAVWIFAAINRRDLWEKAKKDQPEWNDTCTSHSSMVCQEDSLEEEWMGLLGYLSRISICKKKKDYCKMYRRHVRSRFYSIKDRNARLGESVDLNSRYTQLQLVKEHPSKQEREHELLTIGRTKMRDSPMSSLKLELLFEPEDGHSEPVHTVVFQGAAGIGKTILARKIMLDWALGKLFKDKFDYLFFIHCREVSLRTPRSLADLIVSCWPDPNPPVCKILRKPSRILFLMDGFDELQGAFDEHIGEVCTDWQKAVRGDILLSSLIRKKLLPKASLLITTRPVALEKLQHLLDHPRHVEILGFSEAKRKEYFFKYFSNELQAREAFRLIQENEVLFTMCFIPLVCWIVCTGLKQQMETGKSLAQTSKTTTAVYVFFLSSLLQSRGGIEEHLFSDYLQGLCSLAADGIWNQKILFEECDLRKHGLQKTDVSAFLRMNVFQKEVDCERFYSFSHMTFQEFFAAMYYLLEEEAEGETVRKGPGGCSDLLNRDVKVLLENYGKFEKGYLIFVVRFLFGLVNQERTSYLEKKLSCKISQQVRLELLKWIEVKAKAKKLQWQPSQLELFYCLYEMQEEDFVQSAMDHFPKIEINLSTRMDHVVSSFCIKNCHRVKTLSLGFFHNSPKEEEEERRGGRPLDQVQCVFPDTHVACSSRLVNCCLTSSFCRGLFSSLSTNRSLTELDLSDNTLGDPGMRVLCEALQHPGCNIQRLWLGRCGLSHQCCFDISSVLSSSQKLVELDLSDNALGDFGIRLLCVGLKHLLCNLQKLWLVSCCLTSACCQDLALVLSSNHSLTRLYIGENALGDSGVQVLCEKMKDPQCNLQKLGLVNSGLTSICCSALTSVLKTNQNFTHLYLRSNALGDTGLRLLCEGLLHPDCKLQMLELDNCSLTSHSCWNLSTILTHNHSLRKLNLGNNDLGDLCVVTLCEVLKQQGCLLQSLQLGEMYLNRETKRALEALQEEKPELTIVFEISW
Sequence of Caspase-1 (Homo sapiens), P29466 [C270A] (P29466 whole entry C270A, the tested form may be a part): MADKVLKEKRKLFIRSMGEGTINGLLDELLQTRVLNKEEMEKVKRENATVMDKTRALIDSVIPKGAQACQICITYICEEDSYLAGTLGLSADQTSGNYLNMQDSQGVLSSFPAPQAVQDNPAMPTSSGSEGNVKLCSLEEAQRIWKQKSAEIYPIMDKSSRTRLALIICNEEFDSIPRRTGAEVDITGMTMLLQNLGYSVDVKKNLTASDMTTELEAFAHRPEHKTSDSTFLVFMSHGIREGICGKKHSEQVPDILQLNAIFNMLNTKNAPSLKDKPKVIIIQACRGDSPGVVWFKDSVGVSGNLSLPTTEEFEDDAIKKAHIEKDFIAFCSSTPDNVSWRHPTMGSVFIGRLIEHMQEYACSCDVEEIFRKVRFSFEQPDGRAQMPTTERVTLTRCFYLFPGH
Sequence of Caspase-1 (Homo sapiens), P29466 [C244A] (P29466 whole entry C244A): as the sequence (P29466 whole entry C270A, the tested form may be a part) above, with C244A, A270C counted along it
Sequence of Caspase-1 (Homo sapiens), P29466 [C397A] (P29466 whole entry C397A, the tested form may be a part): as the sequence (P29466 whole entry C270A, the tested form may be a part) above, with A270C, C397A counted along it
Sequence of NACHT, LRR and PYD domains-containing protein 3 (Homo sapiens) (Q96P20 whole entry, the tested form may be a part): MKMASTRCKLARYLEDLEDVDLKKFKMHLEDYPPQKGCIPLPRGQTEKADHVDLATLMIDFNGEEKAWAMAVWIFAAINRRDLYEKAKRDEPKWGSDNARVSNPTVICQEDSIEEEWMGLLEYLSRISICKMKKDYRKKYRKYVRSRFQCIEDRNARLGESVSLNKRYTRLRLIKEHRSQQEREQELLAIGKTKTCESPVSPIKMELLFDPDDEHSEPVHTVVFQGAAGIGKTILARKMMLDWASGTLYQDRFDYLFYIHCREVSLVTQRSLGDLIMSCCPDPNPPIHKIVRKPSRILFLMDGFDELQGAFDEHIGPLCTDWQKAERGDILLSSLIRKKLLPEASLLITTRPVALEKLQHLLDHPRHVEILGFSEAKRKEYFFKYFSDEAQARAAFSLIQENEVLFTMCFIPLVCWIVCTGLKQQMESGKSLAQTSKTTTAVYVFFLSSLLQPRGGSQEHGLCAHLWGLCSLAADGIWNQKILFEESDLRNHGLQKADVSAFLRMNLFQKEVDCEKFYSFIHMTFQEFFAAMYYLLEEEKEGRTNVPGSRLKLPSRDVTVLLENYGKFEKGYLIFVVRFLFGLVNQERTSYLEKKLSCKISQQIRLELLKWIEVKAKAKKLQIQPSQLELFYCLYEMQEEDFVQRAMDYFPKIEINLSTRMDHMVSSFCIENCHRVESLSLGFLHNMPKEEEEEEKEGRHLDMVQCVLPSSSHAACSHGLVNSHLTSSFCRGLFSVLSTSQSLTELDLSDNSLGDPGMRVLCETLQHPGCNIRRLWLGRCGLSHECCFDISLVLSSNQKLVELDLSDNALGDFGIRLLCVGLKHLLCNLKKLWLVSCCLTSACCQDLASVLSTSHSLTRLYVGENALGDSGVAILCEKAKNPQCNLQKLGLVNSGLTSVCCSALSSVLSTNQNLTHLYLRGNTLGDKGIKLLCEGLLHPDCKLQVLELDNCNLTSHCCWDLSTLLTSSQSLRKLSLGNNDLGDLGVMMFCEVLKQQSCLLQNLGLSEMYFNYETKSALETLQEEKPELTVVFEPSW

In the case of `COc1ccc2c(c1)[C@]1(C=C[C@H](N=C=S)C[C@H]1C(=O)OC(C)(C)C)C(=O)N2C(=O)OCc1ccccc1`, the inhibition entry (with J774.A1 [1]; in data set [5]; in the data set on J774.A1 [7]; in the data set with J774.A1 [10]; in [11]; in the data set with HEK293T) was “Active” each time. The inhibition entry (in the data set with J774.A1 [12]; in [14]) was “Active” throughout. For the same compound, the inhibition entry in data set [2] was “Dose-Dependent Effect”. The Activity result in data set [3] and in [6] was “Non-Toxic” throughout. The inhibition entry (in [4]; on Caspase-3 (Mus musculus); in [9]) was “inactive” throughout. Besides, on Caspase-1 (Homo sapiens), the “inhibition (active/not active)” value is “Active”. Besides, the outcome (in [8]; at Caspase-1 (Mus musculus); with Mus musculus) was Active. In addition, the result (in data set [13]; with THP-1) was inactive.
